{"source": "paper PMC7100886", "about": "(Cell Cycle, 2020)", "molecules": {"B1": {"name": "CAPER Peptide HCC1.4 (peptide)", "peptide": "Biotin-YGRKKRRQRRRRLQLMARLAEGTGLQIPPAAQQALQMSGSLAFGAVAEFSFVIDLQ"}, "B2": {"name": "CAPER Peptide HCC1.3 (peptide)", "peptide": "Biotin-YGRKKRRQRRRRLQLMARLAEGTGLQIPPAAQQALQMSGSLAFGAVADLQTRLSQQ"}}, "key": {"c-Jun": {"molecular_target": "c-Jun (Homo sapiens, UniProt P05412)", "sequence (P05412 whole entry)": "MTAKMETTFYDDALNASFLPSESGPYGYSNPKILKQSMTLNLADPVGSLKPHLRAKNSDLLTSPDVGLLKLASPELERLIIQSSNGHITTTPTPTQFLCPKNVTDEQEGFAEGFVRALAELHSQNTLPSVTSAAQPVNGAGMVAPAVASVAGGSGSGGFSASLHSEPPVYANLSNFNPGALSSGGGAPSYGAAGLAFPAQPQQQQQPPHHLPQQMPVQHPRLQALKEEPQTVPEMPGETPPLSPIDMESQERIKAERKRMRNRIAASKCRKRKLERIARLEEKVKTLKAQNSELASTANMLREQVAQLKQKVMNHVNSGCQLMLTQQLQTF", "settings": "cited from earlier work"}, "BT-549 cells": {"system": "BT-549 cells", "settings": "RAD51 inhibitor; cited from earlier work"}, "[1]": {"molecular_target": "His-tagged recombinant c-Jun (UniProt P05412 1-331)", "sequence (P05412 whole entry)": "as above", "assay": "BLI"}}, "note": "Ends that are not written are not given here. * marks the point of attachment. Biotin = O=C1N[C@H]2[C@H](CS[C@H]2CCCCC(=O)*)N1"}
{"molecule": "CC[C@]1(O)C[C@@H]2CN(CCc3c([nH]c4ccccc34)[C@@](C(=O)OC)(c3cc4c(cc3OC)N(C)[C@H]3[C@@](O)(C(=O)OC)[C@H](OC(C)=O)[C@]5(CC)C=CCN6CC[C@]43[C@@H]65)C2)C1", "note": "[Vinblastine]", "values": [{"measurement": "p21", "setting": "c-Jun", "value": "decrease in p21"}, {"measurement": "phosphorylated c-Jun", "setting": "c-Jun", "value": "increasing phosphorylated c-Jun"}]}
{"molecule": "O=C1C(Cl)=C(N2CCOCC2)C(=O)N1c1ccc(Cl)c(Cl)c1", "note": "[RI-1]", "values": [{"measurement": "effect on efficiency of double stranded DNA break repair", "setting": "BT-549 cells", "value": "little to no effect"}]}
{"molecule": "B1", "values": [{"measurement": "Kd", "setting": "[1]", "value": 25.6, "unit": "nM"}]}
{"molecule": "B2", "values": [{"measurement": "Kd", "setting": "[1]", "value": 8.89, "unit": "nM"}]}
